# Values of other authors as cited in patent CN116041271A, “一种氟苯尼考中间体的制备方法” (Shandong Weiyan Biotechnology Co ltd, priority 2022, dated 2023).
# Key:
# [1] = in words
# [2] = administered in feed
# [3] = system: Fusobacterium (梭杆菌); settings: in words; cattle
# [4] = in words; remark: listed apart in the source
smiles,measurement,setting,value
CS(=O)(=O)c1ccc([C@@H](O)[C@@H](CF)NC(=O)C(Cl)Cl)cc1 [氟苯尼考],control of disease,[1],能迅速控制病情
same,time after administration to peak drug concentration in tissue,[2],60 min
same,therapeutic effect on bovine foot rot caused by Fusobacterium,[3],有较好疗效
same,potential risk of causing aplastic anemia,[4],无潜在致再生障碍性贫血的隐患
same,residue,[4],无残留
same,safety,[4],安全性高
same,toxicity,[4],无毒
same,antibacterial effect relative to chloramphenicol and thiamphenicol,"compared with chloramphenicol, thiamphenicol",15-20 times
same,antibacterial spectrum,in words,广
same,bacteriostatic action,in words,强
same,minimum inhibitory concentration (MIC),in words,低
